# According to patent US20210253575A1, “PYRROLIDINE AMINE COMPOUNDS FOR THE TREATMENT OF AUTOIMMUNE DISEASE” (Hoffmann-La Roche Inc., priority 2018, published 2021):
# Target: T1, human TLR8 (Homo sapiens, UniProt Q9NR97)
# T1 sequence (Q9NR97 27-1041): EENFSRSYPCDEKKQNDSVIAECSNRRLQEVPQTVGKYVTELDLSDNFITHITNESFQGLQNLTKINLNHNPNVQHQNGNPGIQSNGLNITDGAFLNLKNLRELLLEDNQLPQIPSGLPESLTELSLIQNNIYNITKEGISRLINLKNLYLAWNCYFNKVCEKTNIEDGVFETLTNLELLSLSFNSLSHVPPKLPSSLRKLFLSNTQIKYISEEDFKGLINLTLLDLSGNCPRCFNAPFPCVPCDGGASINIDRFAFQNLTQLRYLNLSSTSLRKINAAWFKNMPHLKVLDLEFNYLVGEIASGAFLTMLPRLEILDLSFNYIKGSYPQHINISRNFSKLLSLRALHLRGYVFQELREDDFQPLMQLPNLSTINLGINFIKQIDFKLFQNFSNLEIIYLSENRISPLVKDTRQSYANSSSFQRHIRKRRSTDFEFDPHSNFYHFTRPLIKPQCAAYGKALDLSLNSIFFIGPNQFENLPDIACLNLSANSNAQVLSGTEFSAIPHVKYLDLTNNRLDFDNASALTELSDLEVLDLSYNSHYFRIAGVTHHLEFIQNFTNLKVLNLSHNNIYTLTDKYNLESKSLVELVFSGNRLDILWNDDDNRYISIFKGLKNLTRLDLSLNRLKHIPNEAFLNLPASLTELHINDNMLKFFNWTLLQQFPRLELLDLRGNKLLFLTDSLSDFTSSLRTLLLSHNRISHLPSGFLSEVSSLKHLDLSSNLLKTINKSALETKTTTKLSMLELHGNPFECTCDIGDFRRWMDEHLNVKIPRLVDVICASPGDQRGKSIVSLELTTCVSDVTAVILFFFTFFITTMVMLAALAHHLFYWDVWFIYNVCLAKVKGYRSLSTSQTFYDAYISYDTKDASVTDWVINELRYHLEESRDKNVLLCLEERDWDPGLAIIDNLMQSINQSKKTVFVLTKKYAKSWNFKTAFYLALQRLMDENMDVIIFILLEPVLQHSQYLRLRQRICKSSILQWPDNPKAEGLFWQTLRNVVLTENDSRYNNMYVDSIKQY
# Assay: HEK293-Blue-hTLR-8 cells assay (SEAP reporter, R848 stimulation)
# Type: cell-based
# Conditions: HEK293-Blue-hTLR8 cells, R848 ligand, 20 hrs incubation
# Procedure: The following tests were carried out in order to determine the activity of the compounds of formula (I) in HEK293-Blue-hTLR-7/8/9 cells assay.
# HEK293-Blue-hTLR-8 Cells Assay:
# A stable HEK293-Blue-hTLR-8 cell line was purchased from InvivoGen (Cat. #: hkb-htlr8, San Diego, Calif., USA). These cells were originally designed for studying the stimulation of human TLR8 by monitoring the activation of NF-κB. A SEAP (secreted embryonic alkaline phosphatase) reporter gene was placed under the control of the IFN-β minimal promoter fused to five NF-κB and AP-1-binding sites. The SEAP was induced by activating NF-κB and AP-1 via stimulating HEK-Blue hTLR8 cells with TLR8 ligands. Therefore the reporter expression was declined by TLR8 antagonist under the stimulation of a ligand, such as R848, for incubation of 20 hrs. The cell culture supernatant SEAP reporter activity was determined using QUANTI-Blue™ kit (Cat. #: rep-qb1, Invivogen, San Diego, Ca, USA) at a wavelength of 640 nm, a detection medium that turns purple or blue in the presence of alkaline phosphatase.
# HEK293-Blue-hTLR8 cells were incubated at a density of 250,000˜450,000 cells/mL in a volume of 170 μL in a 96-well plate in Dulbecco's Modified Eagle's medium (DMEM) containing 4.5 g/L glucose, 50 U/mL penicillin, […], […], 2 mM L-glutamine, 10% (v/v) heat-inactivated fetal bovine serum with addition of 20 μL test compound in a serial dilution in the presence of final DMSO at 1% and 10 μL of 60 uM R848 in above DMEM, perform incubation under 37° C. in a CO2 incubator for 20 hrs. Then 20 μL of the supernatant from each well was incubated with 180 μL Quanti-blue substrate solution at 37° C. for 2 hrs and the absorbance was read at 620-655 nm using a spectrophotometer. The signalling pathway that TLR8 activation leads to downstream NF-κB activation has been widely accepted, and therefore similar reporter assay was modified for evaluating TLR8 antagonist.
row,SMILES,IC50
1,"N#Cc1ccc(N2C[C@H](CN3CCC(N4CCNCC4)CC3)[C@@H](C(F)(F)F)C2)c2cccnc12 [Example 52, 5-[(3S,4R)-3-[(4-piperazin-1-yl-1-piperidyl)methyl]-4-(trifluoromethyl)pyrrolidin-1-yl]quinoline-8-carbonitrile]",0.088 µM
2,"N#Cc1ccc(N2C[C@H](CN3CC4(CC(N)C4)C3)[C@@H](C(F)(F)F)C2)c2cccnc12 [Example 53, 5-[(3S,4R)-3-[(6-Amino-2-azaspiro[3.3]heptan-2-yl)methyl]-4-(trifluoromethyl)pyrrolidin-1-yl]quinoline-8-carbonitrile]",0.146 µM
3,"N#Cc1ccc(N2C[C@H](CN3CCC4(CCNC4)CC3)[C@@H](C(F)(F)F)C2)c2cccnc12 [Example 54, 5-[(3S,4R)-3-(2,8-Diazaspiro[4.5]decan-8-ylmethyl)-4-(trifluoromethyl)pyrrolidin-1-yl]quinoline-8-carbonitrile]",0.044 µM
4,"N#Cc1ccc(N2C[C@H](CN3CCC4(CCCNC4)CC3)[C@@H](C(F)(F)F)C2)c2cccnc12 [Example 55, 5-[(3S,4R)-3-(2,9-Diazaspiro[5.5]undecan-9-ylmethyl)-4-(trifluoromethyl)pyrrolidin-1-yl]quinoline-8-carbonitrile]",0.042 µM
5,"N#Cc1ccc(N2C[C@H](CN3CCC4(CCNCC4)C3)[C@@H](C(F)(F)F)C2)c2cccnc12 [Example 56, 5-[(3S,4R)-3-(2,8-Diazaspiro[4.5]decan-2-ylmethyl)-4-(trifluoromethyl)pyrrolidin-1-yl]quinoline-8-carbonitrile]",0.062 µM
6,"N#Cc1ccc(N2C[C@H](CN3CCCC4(CCNCC4)C3)[C@@H](C(F)(F)F)C2)c2cccnc12 [Example 57, 5-[(3S,4R)-3-(2,9-Diazaspiro[5.5]undecan-2-ylmethyl)-4-(trifluoromethyl)pyrrolidin-1-yl]quinoline-8-carbonitrile]",0.085 µM
7,"N#Cc1ccc(N2CC(CN3CCC(N4CCOCC4)CC3)C3(CC3)C2)c2nccnc12 (stereo not drawn) [Example 58, 8-[7-[(4-Morpholino-1-piperidyl)methyl]-5-azaspiro[2.4]heptan-5-yl]quinoxaline-5-carbonitrile]",0.091 µM
8,"N#Cc1ccc(N2C[C@H](CN3CCNCC3)[C@@H](C(F)(F)F)C2)c2nccnc12 [Example 59, 8-[(3S,4R)-3-(Piperazin-1-ylmethyl)-4-(trifluoromethyl)pyrrolidin-1-yl]quinoxaline-5-carbonitrile]",0.014 µM
9,"N#Cc1ccc(N2C[C@H](CN3CCC(N4CCCC4)CC3)[C@@H](C(F)(F)F)C2)c2nccnc12 [Example 60, 8-[(3S,4R)-3-[(4-Pyrrolidin-1-yl-1-piperidyl)methyl]-4-(trifluoromethyl)pyrrolidin-1-yl]quinoxaline-5-carbonitrile]",0.043 µM
10,"N#Cc1ccc(N2C[C@H](CN3CCC(N4CCCCC4)CC3)[C@@H](C(F)(F)F)C2)c2nccnc12 [Example 61, 8-[(3S,4R)-3-[[4-(1-Piperidyl)-1-piperidyl]methyl]-4-(trifluoromethyl)pyrrolidin-1-yl]quinoxaline-5-carbonitrile]",0.023 µM
11,"N#Cc1ccc(N2C[C@H](CN3CCC(N4CCCCCC4)CC3)[C@@H](C(F)(F)F)C2)c2nccnc12 [Example 62, 8-[(3S,4R)-3-[[4-(Azepan-1-yl)-1-piperidyl]methyl]-4-(trifluoromethyl)pyrrolidin-1-yl]quinoxaline-5-carbonitrile]",0.028 µM
12,"N#Cc1ccc(N2C[C@H](CN3C4CCC3CC(N)C4)[C@@H](C(F)(F)F)C2)c2nccnc12 (stereo partly drawn) [Example 63, 8-[(3S,4R)-3-[(3-amino-8-azabicyclo[3.2.1]octan-8-yl)methyl]-4-(trifluoromethyl)pyrrolidin-1-yl]quinoxaline-5-carbonitrile]",0.025 µM
13,"N#Cc1ccc(N2C[C@H](CN3CCC(N)C(F)(F)C3)[C@@H](C(F)(F)F)C2)c2nccnc12 (stereo partly drawn) [Example 64, 8-[(3S,4R)-3-[(4-amino-3,3-difluoro-1-piperidyl)methyl]-4-(trifluoromethyl)pyrrolidin-1-yl]quinoxaline-5-carbonitrile]",0.086 µM
14,"N#Cc1ccc(N2CC(CN3CCC4(CCCCN4)CC3)C3(CC3)C2)c2nccnc12 (stereo not drawn) [Example 65, 8-[7-(1,9-Diazaspiro[5.5]undecan-9-ylmethyl)-5-azaspiro[2.4]heptan-5-yl]quinoxaline-5-carbonitrile]",0.092 µM
15,"N#Cc1ccc(N2CC(CN3CCC4NCC4C3)C3(CC3)C2)c2nccnc12 (stereo not drawn) [Example 66, 8-[7-(3,7-Diazabicyclo[4.2.0]octan-3-ylmethyl)-5-azaspiro[2.4]heptan-5-yl]quinoxaline-5-carbonitrile]",0.082 µM
16,"N#Cc1ccc(N2CC(CN3CCOC4(CCNCC4)C3)C3(CC3)C2)c2nccnc12 (stereo not drawn) [Example 67, 8-[7-(1-Oxa-4,9-diazaspiro[5.5]undecan-4-ylmethyl)-5-azaspiro[2.4]heptan-5-yl]quinoxaline-5-carbonitrile]",0.041 µM
17,"N#Cc1ccc(N2CC(CN3CCC(N)CC3)C3(CC3)C2)c2nccnc12 (stereo not drawn) [Example 68, 8-[7-[(4-Amino-1-piperidyl)methyl]-5-azaspiro[2.4]heptan-5-yl]quinoxaline-5-carbonitrile]",0.051 µM
18,"N#Cc1ccc(N2C[C@H](CN3CCCC(C(N)=O)C3)[C@@H](C(F)(F)F)C2)c2nccnc12 (stereo partly drawn) [Example 69, 1-[[(3S,4R)-1-(S-cyanoquinoxalin-5-yl)-4-(trifluoromethyl)pyrrolidin-3-yl]methyl]piperidine-3-carboxamide]",0.729 µM
19,"N#Cc1ccc(N2C[C@H](CN3CCC4(CC3)CNCCO4)[C@@H](C(F)(F)F)C2)c2nccnc12 [Example 70, 8-[(3S,4R)-3-(1-oxa-4,9-diazaspiro[5.5]undecan-9-ylmethyl)-4-(trifluoromethyl)pyrrolidin-1-yl]quinoxaline-5-carbonitrile]",0.02 µM
20,"N#Cc1ccc(N2C[C@H](CNC3CCNCC3)[C@@H](C(F)(F)F)C2)c2nccnc12 [Example 71, 8-[(3S,4R)-3-[(4-piperidylamino)methyl]-4-(trifluoromethyl)pyrrolidin-1-yl]quinoxaline-5-carbonitrile]",0.094 µM
21,"C[C@H]1CN(C[C@H]2CN(c3ccc(C#N)c4nccnc34)C[C@@H]2C(F)(F)F)CC[C@H]1N [Example 72, 8-[(3S,4R)-3-[[(3S,4R)-4-amino-3-methyl-1-piperidyl]methyl]-4-(trifluoromethyl)pyrrolidin-1-yl]quinoxaline-5-carbonitrile]",0.023 µM
22,"N#Cc1ccc(N2C[C@H](CN3CC4CCC(C3)C4N)[C@@H](C(F)(F)F)C2)c2nccnc12 (stereo partly drawn) [Example 73, 8-[(3S,4R)-3-[(8-amino-3-azabicyclo[3.2.1]octan-3-yl)methyl]-4-(trifluoromethyl)pyrrolidin-1-yl]quinoxaline-5-carbonitrile]",0.035 µM
23,"N#Cc1ccc(N2C[C@H](CN3CCC(CN)CC3)[C@@H](C(F)(F)F)C2)c2nccnc12 [Example 74, 8-[(3S,4R)-3-[[4-(aminomethyl)-1-piperidyl]methyl]-4-(trifluoromethyl)pyrrolidin-1-yl]quinoxaline-5-carbonitrile]",0.055 µM
24,"CC1(CN)CCCN(C[C@H]2CN(c3ccc(C#N)c4nccnc34)C[C@@H]2C(F)(F)F)C1 (stereo partly drawn) [Example 75, 8-[(3S,4R)-3-[[3-(aminomethyl)-3-methyl-1-piperidyl]methyl]-4-(trifluoromethyl)pyrrolidin-1-yl]quinoxaline-5-carbonitrile]",0.031 µM
